# Laboratory results from patent US10913720B2, “Benzyloxypyridylcyclopropanecarboxylic acids, pharmaceutical compositions and uses thereof” (Boehringer Ingelheim International GmbH, priority 2017, dated 2021).
# Biological target: human GPR40 receptor (Homo sapiens, UniProt O14842)
# Experiment: IP1 accumulation measurements using the IPOne assay system
# Assay type: cell-based
# Settings: 1321N1 cells stably expressing human GPR40; 1 h stimulation at 37° C.
# Description: IP1 accumulation measurements using the IPOne assay system—1321N1 cells stably expressing human GPR40 receptor (Euroscreen, Belgium) are seeded 24 h before the assay in white 384-well plates in culture medium containing 10% FCS, 1% Na-Pyruvate and 400 μg/mL G418. IP1 is assayed according to the manufacturer's description (Cisbio Bioassays, France). In brief, the assay is started by substitution of the culture medium by stimulation buffer (Hepes 10 mM, CaCl2) 1 mM, MgCl2 0.5 mM, KCl 4.2 mM, NaCl 146 mM, glucose 5.5 mM and LiCl 50 mM, pH 7.4). Cells are stimulated for 1 h at 37° C., 5% CO2 by addition of the compounds that are diluted in stimulation buffer containing LiCl. Assays are stopped by adding HTRF-conjugates (IP1-d2 and Anti-IP1 cryptate Tb) and lysis buffer, provided by the manufacturer. After an incubation time of 1 h at room temperature plates are measured using an EnVision™, Perkin Elmer. The obtained fluorescence ratios at 665/615 […] are then used to calculate the pEC50 values using Assay Explorer 3.3 Software (Accelrys, Inc.) by interpolation using an IP1 reference curve and subsequent sigmoidal curve fitting allowing for a variable hill slope.
# Sequence of human GPR40 receptor (O14842 whole entry): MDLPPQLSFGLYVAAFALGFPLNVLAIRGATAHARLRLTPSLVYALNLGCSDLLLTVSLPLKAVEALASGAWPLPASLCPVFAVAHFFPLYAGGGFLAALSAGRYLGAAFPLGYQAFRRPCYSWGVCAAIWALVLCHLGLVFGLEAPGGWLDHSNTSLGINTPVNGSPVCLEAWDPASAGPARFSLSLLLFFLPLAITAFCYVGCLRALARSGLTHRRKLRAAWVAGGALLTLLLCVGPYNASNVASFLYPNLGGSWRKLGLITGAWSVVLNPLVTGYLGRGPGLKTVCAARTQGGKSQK
row,SMILES,EC50
1,"O=C(O)[C@H]1C[C@@H]1c1ccc(OCc2cccc(-c3c(Cl)cccc3Cl)c2)cn1 [Example 15, (1S,2S)-2-[5-(2′,6′-Dichloro-biphenyl-3-ylmethoxy)-pyridin-2-yl]-cyclopropane-carboxylic Acid]",0.024 µM
2,"Cc1cnc(-c2cc(C)c(-c3cccc(COc4ccc([C@H]5C[C@@H]5C(=O)O)nc4)c3)c(C)c2)nc1 [Example 2, (1S,2S)-2-{5-[2′,6′-Dimethyl-4′-(5-methyl-pyrimidin-2-yl)-biphenyl-3-ylmethoxy]-pyridin-2-yl}-cyclopropanecarboxylic Acid]",0.006 µM
3,"Cc1cc(OCC2CCOCC2)cc(C)c1-c1cccc(COc2ccc([C@H]3C[C@@H]3C(=O)O)nc2)c1 [Example 10, (1S,2S)-2-{5-[2′,6′-Dimethyl-4′-(tetrahydro-pyran-4-ylmethoxy)-biphenyl-3-ylmethoxy]-pyridin-2-yl}-cyclopropanecarboxylic Acid]",0.023 µM
4,"Cc1cc(-c2ccnn2C)cc(C)c1-c1cccc(COc2ccc([C@H]3C[C@@H]3C(=O)O)nc2)c1 [Example 7, (1S,2S)-2-{5-[2′,6′-Dimethyl-4′-(2-methyl-2H-pyrazol-3-yl)-biphenyl-3-ylmethoxy]-pyridin-2-yl}-cyclopropanecarboxylic Acid]",0.011 µM
5,"COc1ccc(-c2ccc(-c3cc(COc4ccc([C@H]5C[C@@H]5C(=O)O)nc4)ccc3C(F)(F)F)cc2)nn1 [Example 29, (1S,2S)-2-{5-[4′-(6-Methoxy-pyridazin-3-yl)-6-trifluoromethyl-biphenyl-3-ylmethoxy]-pyridin-2-yl}-cyclopropanecarboxylic Acid]",0.01 µM
6,"COc1cc(-c2cc(C)c(-c3ccc(F)c(COc4ccc([C@H]5C[C@@H]5C(=O)O)nc4)c3)c(C)c2)ccn1 [Example 20, (1S,2S)-2-{5-[4-Fluoro-4′-(2-methoxy-pyridin-4-yl)-2′,6′-dimethyl-biphenyl-3-ylmethoxy]-pyridin-2-yl}-cyclopropanecarboxylic Acid]",0.005 µM
7,"CCc1cccc(CC)c1-c1cccc(COc2ccc([C@H]3C[C@@H]3C(=O)O)nc2)c1 [Example 9, (1S,2S)-2-[5-(2′,6′-Diethyl-biphenyl-3-ylmethoxy)-pyridin-2-yl]-cyclopropane-carboxylic Acid]",0.062 µM
8,"Cc1cc(-c2nnn(C)n2)cc(C)c1-c1ccc(F)c(COc2ccc([C@H]3C[C@@H]3C(=O)O)nc2)c1 [Example 17, (1S,2S)-2-{5-[4-Fluoro-2′,6′-dimethyl-4′-(2-methyl-2H-tetrazol-5-yl)-biphenyl-3-ylmethoxy]-pyridin-2-yl}-cyclopropanecarboxylic Acid]",0.003 µM
9,"Cc1cc(-c2nnn(CC(C)(C)O)n2)cc(C)c1-c1ccc(F)c(COc2ccc([C@H]3C[C@@H]3C(=O)O)nc2)c1 [Example 18, (1S,2S)-2-(5-{4-Fluoro-4′-[2-(2-hydroxy-2-methyl-propyl)-2H-tetrazol-5-yl]-2′,6′-dimethyl-biphenyl-3-ylmethoxy}-pyridin-2-yl)-cyclopropanecarboxylic Acid]",0.006 µM
10,"CC(C)(O)CCOc1ccc(-c2cc(COc3ccc([C@H]4C[C@@H]4C(=O)O)nc3)ccc2C(F)(F)F)cc1 [Example 30, (1S,2S)-2-{5-[4′-(3-Hydroxy-3-methyl-butoxy)-6-trifluoromethyl-biphenyl-3-ylmethoxy]-pyridin-2-yl}-cyclopropanecarboxylic Acid]",0.012 µM
11,"Cc1cnc(-c2cc(C)c(-c3ccc(F)c(COc4ccc([C@H]5C[C@@H]5C(=O)O)nc4)c3)c(C)c2)nc1 [Example 22, (1S,2S)-2-{5-[4-Fluoro-2′,6′-dimethyl-4′-(5-methyl-pyrimidin-2-yl)-biphenyl-3-ylmethoxy]-pyridin-2-yl}-cyclopropanecarboxylic Acid]",0.004 µM
12,"COc1cnc(-c2ccc(-c3cc(COc4ccc([C@H]5C[C@@H]5C(=O)O)nc4)ccc3C(F)(F)F)cc2)nc1 [Example 28, (1S,2S)-2-{5-[4′-(5-Methoxy-pyrimidin-2-yl)-6-trifluoromethyl-biphenyl-3-ylmethoxy]-pyridin-2-yl}-cyclopropanecarboxylic Acid]",0.004 µM
13,"Cc1cc(OCC2(C)COC2)cc(C)c1-c1ccc(F)c(COc2ccc([C@H]3C[C@@H]3C(=O)O)nc2)c1 [Example 23, (1S,2S)-2-{5-[4-Fluoro-2′,6′-dimethyl-4′-(3-methyl-oxetan-3-ylmethoxy)-biphenyl-3-ylmethoxy]-pyridin-2-yl}-cyclopropanecarboxylic Acid]",0.024 µM
14,"Cc1cc(-c2nnn(CC(C)(C)O)n2)cc(C)c1-c1cccc(COc2ccc([C@H]3C[C@@H]3C(=O)O)nc2)c1 [Example 6, (1S,2S)-2-(5-{4′-[2-(2-Hydroxy-2-methyl-propyl)-2H-tetrazol-5-yl]-2′,6′-dimethyl-biphenyl-3-ylmethoxy}-pyridin-2-yl)-cyclopropanecarboxylic Acid]",0.009 µM
15,"Cc1cc(-c2ccc(=O)n(C)c2)cc(C)c1-c1cccc(COc2ccc([C@H]3C[C@@H]3C(=O)O)nc2)c1 [Example 4, (1S,2S)-2-{5-[2′,6′-Dimethyl-4′-(1-methyl-6-oxo-1,6-dihydro-pyridin-3-yl)-biphenyl-3-ylmethoxy]-pyridin-2-yl}-cyclopropanecarboxylic Acid]",0.015 µM
16,"Cc1cc(OCC2CCCO2)cc(C)c1-c1cccc(COc2ccc([C@H]3C[C@@H]3C(=O)O)nc2)c1 (stereo partly drawn) [Example 11, (1S,2S)-2-{5-[2′,6′-Dimethyl-4′-(tetrahydro-furan-2-ylmethoxy)-biphenyl-3-ylmethoxy]-pyridin-2-yl}-cyclopropanecarboxylic Acid]",0.032 µM
17,"Cc1cc(OC2CCOCC2)cc(C)c1-c1cccc(COc2ccc([C@H]3C[C@@H]3C(=O)O)nc2)c1 [Example 13, (1S,2S)-2-{5-[2′,6′-Dimethyl-4′-(tetrahydro-pyran-4-yloxy)-biphenyl-3-ylmethoxy]-pyridin-2-yl}-cyclopropanecarboxylic Acid]",0.029 µM
18,"Cc1cc(C(=O)O)cc(C)c1-c1ccc(F)c(COc2ccc([C@H]3C[C@@H]3C(=O)O)nc2)c1 [Example 24, (1S,2S)-3′-[6-(−2-Carboxy-cyclopropyl)-pyridin-3-yloxymethyl]-4′-fluoro-2,6-dimethyl-biphenyl-4-carboxylic Acid]",2.12 µM
19,"COc1cc(-c2cc(C)c(-c3cccc(COc4ccc([C@H]5C[C@@H]5C(=O)O)nc4)c3)c(C)c2)ccn1 [Example 8, (1S,2S)-2-{5-[4′-(2-Methoxy-pyridin-4-yl)-2′,6′-dimethyl-biphenyl-3-ylmethoxy]-pyridin-2-yl}-cyclopropanecarboxylic Acid]",0.006 µM
20,"Cc1cc(O[C@H]2CCOC2)cc(C)c1-c1cccc(COc2ccc([C@H]3C[C@@H]3C(=O)O)nc2)c1 [Example 12, (1S,2S)-2-(5-{2′,6′-Dimethyl-4′-[(S)-(tetrahydrofuran-3-yl)oxy]-biphenyl-3-ylmethoxy}-pyridin-2-yl)-cyclopropanecarboxylic Acid]",0.027 µM
21,"Cc1cc(-c2ccnn2C)cc(C)c1-c1ccc(F)c(COc2ccc([C@H]3C[C@@H]3C(=O)O)nc2)c1 [Example 21, (1S,2S)-2-{5-[4-Fluoro-2′,6′-dimethyl-4′-(2-methyl-2H-pyrazol-3-yl)-biphenyl-3-ylmethoxy]-pyridin-2-yl}-cyclopropanecarboxylic Acid]",0.006 µM
22,"Cc1cc(OCCCS(C)(=O)=O)cc(C)c1-c1cccc(COc2ccc([C@H]3C[C@@H]3C(=O)O)nc2)c1 [Example 16, (1S,2S)-2-{5-[4′-(3-Methanesulfonyl-propoxy)-2′,6′-dimethyl-biphenyl-3-ylmethoxy]-pyridin-2-yl}-cyclopropanecarboxylic Acid]",0.037 µM
23,"Cc1cc(OCC(C)(C)O)cc(C)c1-c1ccc(F)c(COc2ccc([C@H]3C[C@@H]3C(=O)O)nc2)c1 [Example 25, (1S,2S)-2-{5-[4-Fluoro-4′-(2-hydroxy-2-methyl-propoxy)-2′,6′-dimethyl-biphenyl-3-ylmethoxy]-pyridin-2-yl}-cyclopropanecarboxylic Acid]",0.036 µM
24,"Cc1cc(-c2cnccn2)cc(C)c1-c1cccc(COc2ccc([C@H]3C[C@@H]3C(=O)O)nc2)c1 [Example 5, (1S,2S)-2-[5-(2′,6′-Dimethyl-4′-pyrazin-2-yl-biphenyl-3-ylmethoxy)-pyridin-2-yl]-cyclopropanecarboxylic Acid]",0.011 µM
25,"Cc1cc(-c2cnccn2)cc(C)c1-c1ccc(F)c(COc2ccc([C@H]3C[C@@H]3C(=O)O)nc2)c1 [Example 19, (1S,2S)-2-[5-(4-Fluoro-2′,6′-dimethyl-4′-pyrazin-2-yl-biphenyl-3-ylmethoxy)-pyridin-2-yl]-cyclopropanecarboxylic Acid]",0.007 µM
26,"COc1cc(C)c(-c2cccc(COc3ccc([C@H]4C[C@@H]4C(=O)O)nc3)c2)c(C)c1 [Example 14, (1S,2S)-2-[5-(4′-Methoxy-2′,6′-dimethyl-biphenyl-3-ylmethoxy)-pyridin-2-yl]-cyclopropanecarboxylic Acid]",0.027 µM
27,"Cc1cc(OCCC(C)(C)O)cc(C)c1-c1cc(COc2ccc([C@H]3C[C@@H]3C(=O)O)nc2)c(F)cc1F [Example 26, (1S,2S)-2-{5-[4,6-Difluoro-4′-(3-hydroxy-3-methyl-butoxy)-2′,6′-dimethyl-biphenyl-3-ylmethoxy]-pyridin-2-yl}-cyclopropanecarboxylic Acid]",0.012 µM
